Laboratory results: publication PMC7497626, “Ruthenium-Mediated ^18F-Fluorination and Preclinical Evaluation of a New CB1 Receptor Imaging Agent [^18F]FPATPP” (ACS Chemical Neuroscience, 2020)
Like-named read-outs stand apart in the source and are kept apart here.

How the values were obtained:
[1] = Ex vivo biodistribution with [^18F]FMPEP-d2; assay type: in vivo, mouse
Description: After iv injection of [^18F]FMPEP-d2 to the mouse tail vein, the mice were sacrificed at the following time points: 30 min (3–4 month old, n = 3, males; injected radioactivity 1.3 ± 0.3 MBq; injected mass 1.5 ± 0.5 ng), 60 min (3–4 months old, n = 4, males; injected radioactivity 1.2 ± 0.8 MBq; injected mass 1.3 ± 1.0 ng), and 120 min (1.5–6 month old, n = 12, 5 females; injected radioactivity 2.6 ± 0.8 MBq; injected mass 3.1 ± 1.1 ng). Mice were sacrificed in deep anesthesia of 4.0% isoflurane with cardiac puncture. Organs were operated in the similar manner as in the biodistribution study with [^18F]4.

[2] = design: method as in PMID 32374481; details: 10% ethanolic solution, radiolytic decomposition; cited from earlier work
CB1R [3] = tested on: CB1R; design: method as in PMID 29909177; details: mice, cited from earlier work
CB1R [4] = details: cited from earlier work
[5] = design: method as in PMID 29909177; details: 180 min p.i.; cited from earlier work
CB1R [6] = tested on: CB1R; design: method as in doi:10.1016/B978-0-12-417041-4.00002-3; details: cited from earlier work
[7] = Stability / shelf life of the formulated tracer towards radiolysis; assay type: physicochemical; details: studied up to 5 h after the EOS, n = 2
Description: For tracer production for preclinical evaluation, larger amounts of initial [^18F]fluoride were used and full purification and formulation processes were performed. For the radiofluorination, the SPE method with a 30 min reaction at 160 °C was utilized (conditions as in bar 2, Figure 2B). Elution efficiency was 93 ± 2% (n = 5). Total RCY was 16.7 ± 5.7% (decay-corrected to end of bombardment, d.c. to EOB, n = 5), molar activity (Am) > 95 GBq/μmol (d.c. to end of synthesis, EOS, n = 1) and radiochemical purity (RCP) 99.9 ± 0.1% at EOS (n = 5). Activity yield was 1.0 ± 0.4 GBq (n = 5) at EOS. Synthesis time was 87 ± 5 min (n = 5). The amount of ruthenium in the formulated product was 7.8 ± 1.8 μg/mL.
For PET tracers for clinical use, a generally acknowledged limit for RCP is 95%. […] Lahdenpohja et al. reported that the RCP of [^18F]FMPEP-d2 at EOS varied between 95.5–100% and was a function of radioactivity concentration, which was 20–200 MBq/mL (n > 150) in a 10% ethanolic solution, and the RCP was declined as a function of time due to radiolytic decomposition.[32] The shelf life of the [^18F]FMPEP-d2 was determined to be 120 min.[32] For [^18F]4 formulated in a similar ethanolic solution, the RCP at EOS was 99.9% when the RAC was 200–450 MBq/mL and the shelf life was determined to be at least 300 min, with no significant development of radioactive impurities. […]

mouse cerebral CB1Rs [8] = molecular target: T1, mouse cerebral CB1Rs (Mus musculus, UniProt P47746); assay: In vivo dynamic PET/CT imaging with [^18F]4, with and without rimonabant blocking
T1 construct: from tissue
T1 sequence (P47746 whole entry): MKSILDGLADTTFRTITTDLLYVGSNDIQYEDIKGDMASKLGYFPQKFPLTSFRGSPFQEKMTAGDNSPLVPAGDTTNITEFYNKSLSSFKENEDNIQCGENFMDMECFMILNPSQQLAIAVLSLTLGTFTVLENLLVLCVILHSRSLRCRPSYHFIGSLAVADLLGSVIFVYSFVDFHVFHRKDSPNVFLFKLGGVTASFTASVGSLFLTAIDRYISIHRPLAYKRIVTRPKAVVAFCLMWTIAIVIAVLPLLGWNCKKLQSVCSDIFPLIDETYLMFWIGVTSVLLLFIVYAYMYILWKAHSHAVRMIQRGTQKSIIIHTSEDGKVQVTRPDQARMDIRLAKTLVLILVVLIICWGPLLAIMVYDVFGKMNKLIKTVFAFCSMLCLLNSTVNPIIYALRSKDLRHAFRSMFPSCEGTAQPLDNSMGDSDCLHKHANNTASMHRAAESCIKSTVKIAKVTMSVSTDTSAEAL
Description: Dynamic PET scans were performed for 5 month old mice with an Inveon Multimodality PET/CT scanner (Siemens Medical Solutions USA, Knoxville, Tennessee). Mice were anesthetized with 2.5% isoflurane/oxygen gas, and body temperature was maintained with a heating pad and a bubble-wrap cover. CT transmission scans were performed to correct for attenuation. PET scans were initiated in parallel with an intravenous (iv) bolus injection of [^18F]4 to the mouse tail vein (4–5 month old, n = 6, 2 females; injected radioactivity 4.0 ± 0.4 MBq; injected mass 56 ± 25 ng, 1.7 ± 0.7 μg/kg).
Dynamic emission scans were acquired for 120 min in 3D list mode, with an energy window of 350–650 keV. Scanning times were 120 min (54 frames 30 × 10 s, 15 × 60 s, 4 × 300 s, 2 × 600 s, 3 × 1200 s). The list mode data were stored in 3D sinograms. Data were reconstructed with OSEM3D/MAP software (2 OSEM3D iterations and 18 MAP iterations). The PET/CT images were preprocessed in Matlab R2017a (The MathWorks, Natick, Massachusetts) with an in-house semiautomated pipeline for preclinical images that uses SPM12 (Wellcome Department of Cognitive Neurology, London, UK) preprocessing functionalities and analysis routines. Images were first cropped to a bounding box containing the heads, and individual PET images were coregistered through a rigid-body transformation to their corresponding CT scan. Subjects were spatially normalized through a two-step registration (a rigid followed by an affine transformation) of each subject’s CT to a template CT that was previously constructed as an average of several subjects and was aligned with an atlas T2-weighted MRI template. The combination of transformations was then applied to the PET images, which were also resampled to a voxel size of 0.2 × 0.2 × 0.2 mm^3 (trilinear interpolation), matching the anatomical atlas dimensions.
Volume of interest (VOI) analysis of the whole brain, neocortex, and hippocampus was performed on each subject by averaging the signal inside a slightly modified version of the Ma et al.[40] atlas delineated VOIs, and data were obtained as standardized uptake values (SUVs). SUVs were calculated as follows: SUV = tissue activity concentration (Bq/mL)/(injected dose (Bq)/body weight (g)); it was assumed that 1 mL of tissue equals 1 g. Tissue activity and dose were decay corrected to the same time point.
(§1) The specificity of [^18F]4 on mouse cerebral CB1Rs was examined in a 120 min in vivo study, and then, the same mice were used for ex vivo biodistribution and brain autoradiography studies. […] Control mice (n = 3, 1 female) were the given vehicle (90 μL, 10% EtOH in Kleptose β-cyclodextrin). […] Mice were sacrificed 120 min after iv injection of [^18F]4, and the ^18F-radioactivity distribution differences between pretreated and control mice were examined with in vivo PET imaging, ex vivo autoradiography, and 2480 Wizard Gamma Counter, and the data were analyzed as described in the previous sections.

mouse cerebral CB1Rs [9] = molecular target: T1, mouse cerebral CB1Rs; assay: Ex vivo brain autoradiography with [^18F]4, region-to-thalamus ratios; assay type: in vivo; details: 120 min post injection
Description: For autoradiography, brains were further frozen and cut into 20 μm coronal cryosections for digital autoradiography, and the slices were exposed on an imaging plate (BAS-TR2025, Fuji Photo Film Co.) for approximately 2 half-lives and scanned with a Fuji BAS5000 phosphorimager (FUJIFILM Life Science, Stamford, Connecticut). Digital autoradiographic images were analyzed for count densities with the Aida 4 program (Raytest Isotopenmessgeräte GmbH, Straubenhardt, Germany). For brain slices, regions of interest (ROIs) were drawn over the parietotemporal cortex, striatum, frontal cortex, hippocampus, cerebellar gray matter, and thalamus. The autoradiography was quantified as ratios of the different ROIs relative to the thalamus, which was used as the reference region.
as §1

[10] = Ex vivo biodistribution with [^18F]4; assay type: in vivo, mouse
Description: All in vivo animals (n = 6, 2 females) and additional 2 month old mice (n = 11, males, injected radioactivity 7.0 ± 3.0 MBq; injected mass 160 ± 60 ng, 6.2 ± 2.6 μg/kg) were used for ex vivo studies to examine the biodistribution and metabolism of [^18F]4. Thus, the injected dose and injected mass to all the animals used (n = 17) were 5.9 ± 2.8 MBq and 120 ± 70 ng, 4.6 ± 3.0 μg/kg, respectively. After iv injection of [^18F]4, mice were sacrificed in deep anesthesia of 4.0% isoflurane with cardiac puncture at 30 (n = 4), 60 (n = 2), and 120 min (in vivo animals, n = 6 and 2 month old mice n = 5). Organs were immediately dissected, weighed, and measured for ^18F-radioactivity in a 2480 Wizard Gamma Counter (Wallac PerkinElmer, Turku, Finland).
as §1

[11] = Radiometabolite analysis with [^18F]4 in plasma and cortex; assay type: in vivo, mouse; details: 120 min p.i., n = 5
Description: The 2 month old animals (n = 11, used only for ex vivo studies) were used for metabolite analysis. Plasma and brain samples were collected at 30 (n = 4), 60 (n = 2), and 120 min (n = 5) p.i. Plasma samples were treated with MeCN and centrifuged to remove the proteins from the solution. Brain tissue samples were treated with the 40/60 (v/v) 1% TFA (aq)/MeCN solution and then centrifuged. The supernatants were applied to HPTLC silica gel 60 RP-18 plates (Art. 1.05914.0001, Merck, Darmstadt, Germany), and the plates were developed in 40/60 (v/v) 1% TFA (aq)/ MeCN. After drying, the TLC plates were exposed to an imaging plate for approximately 4 h and the imaging plate was scanned with a Fuji Analyzer BAS5000. The amount of [^18F]4 and its radioactive metabolites were analyzed with the Aida 4 program, and the curves were fitted with GraphPad Prism 6.0 (GraphPad Software, San Diego, California) using a double exponential decay equation.

CB1R [12] = tested on: CB1R; design: method as in PMID 22699528; details: cited from earlier work
[13] = 2 mg/kg rimonabant iv 10 min before tracer, 120 min after injection

In the case of `C[C@@H](N[C@@H]1C[C@H](c2cccc(OC[18F])c2)N(c2ccc(C(F)(F)F)cc2)C1=O)c1ccccc1` [[^18F]FMPEP-d2, (3R,5R)-5-(3-([^18F]fluoromethoxy)phenyl)-3-(((R)-1-phenylethyl)amino)-1-(4-(trifluoromethyl)phenyl)pyrrolidin-2-one], the “Whole brain ^18F-radioactivity uptake” value ([1]; 30 min p.i., healthy mice) was 5.6 ± 1.3 %ID/g, the “Skull bone (parietal bone) radioactivity uptake” value ([1]; 120 min p.i., healthy mice) was 2.7 ± 0.5 %ID/g and the “Defluorination compared to [^18F]4” value ([1]; at 120 min, from skull bone uptake) was “over 6 fold”. The Shelf life [2] was 120 min, the Washout (CB1R [3]; up to 90 min p.i.) was “essentially no washout was observed” and the “Time of maximum tracer uptake” value (CB1R [3]) was 30 min. For the same compound, the “Whole brain SUV” value (CB1R [3]) was 1.5, the Washout (CB1R [4]; human studies) was “slow washout” and the “Amount of residual tracer” value [5] was 86%. The “CB1R vs CB2R selectivity” value (CB1R [6]) was 3580 and the Kb (CB1R [6]; for CB1R, read-out: In vitro potency (Kb)) was 0.187 nM.

In the case of `C[C@@H](N[C@@H]1C[C@H](c2cccc([18F])c2)N(c2ccc(C(F)(F)F)cc2)C1=O)c1ccccc1` [[^18F]4, (3R,5R)-5-(3-[^18F]fluorophenyl)-3-(((R)-1-phenylethyl)amino)-1-(4-(trifluoromethyl)phenyl)pyrrolidin-2-one], the “Stability of the formulated tracer after EOS” value [7] was “no significant decomposition was observed”, the “Reduction of binding by rimonabant pretreatment, hippocampus” value (mouse cerebral CB1Rs [8]; [13]) was 62% and the “Reduction of binding by rimonabant pretreatment, neocortex” value (mouse cerebral CB1Rs [8]; [13]) was 59%. The “Reduction of binding by rimonabant pretreatment, whole brain” value (mouse cerebral CB1Rs [8]; [13]) was 58%, the Washout (mouse cerebral CB1Rs [8]; wild-type mice) was “washout phase began immediately after the peak uptake” and the “SUV at 120 min p.i. (after washout)” value (mouse cerebral CB1Rs [8]; wild-type mice, 120 min p.i.) was 1.3. The “Peak standardized uptake value (SUV), hippocampus” value (mouse cerebral CB1Rs [8]; wild-type mice, baseline) was 2.14, the “Peak standardized uptake value (SUV), neocortex” value (mouse cerebral CB1Rs [8]; wild-type mice, baseline) was 1.80 and the “Peak standardized uptake value (SUV), whole brain” value (mouse cerebral CB1Rs [8]; wild-type mice, baseline) was 1.92. For the same compound, the “Time of maximum tracer uptake after injection” value (mouse cerebral CB1Rs [8]; wild-type mice, brain PET) was 30 min, the “Region-to-thalamus ratios in mice pretreated with rimonabant” value (mouse cerebral CB1Rs [9]; 2 mg/kg rimonabant pretreatment) was ~1 and the “Ratio cortex and cerebellar gray matter to thalamus” value (mouse cerebral CB1Rs [9]; without blocking) was 3.7. For the same compound, the “Ratio frontal cortex to thalamus” value (mouse cerebral CB1Rs [9]; without blocking) was 2.5, the “Ratio globus pallidus to thalamus” value (mouse cerebral CB1Rs [9]; without blocking) was 4.9 and the “Ratio parietotemporal cortex to thalamus” value (mouse cerebral CB1Rs [9]; without blocking) was 2.3. For the same compound, the “Ratio striatum to thalamus” value (mouse cerebral CB1Rs [9]; without blocking) was 2.8, the “Ratio whole hippocampus to thalamus” value (mouse cerebral CB1Rs [9]; without blocking) was 2.6 and the Cortex uptake ([10]; 30 min p.i.) was 11.5 ± 3.7 %ID/g. For the same compound, the Liver uptake ([10]; 30 min p.i.) was 12.1 ± 0.7 %ID/g, the Whole brain uptake ([10]; 30 min p.i.) was 9.8 ± 3.2 %ID/g and the “Bone uptake (skull bone, parietal bone)” value ([10]; 120 min p.i.) was 0.4 ± 0.1 %ID/g. It also gave a Cortex uptake ([10]; 120 min p.i.) of 5.1 ± 1.17 % ID/g, a Liver uptake ([10]; 120 min p.i.) of 8.2 ± 1.6 %ID/g and a Whole brain uptake ([10]; 120 min p.i.) of 4.9 ± 0.9 %ID/g. For the same compound, the “Cortex uptake in rimonabant treated mice” value ([10]; 120 min p.i., 2 mg/kg rimonabant pretreatment) was 1.8 ± 0.2 %ID/g, the “Residual tracer in plasma, of the total ^18F-radioactivity” value [11] was “approximately 21.3 ± 3.5%” and the “Residual tracer in the cortex, of the total ^18F-radioactivity” value [11] was 75.0 ± 4.3%.

For `Cc1ccc(OC(C)(C)C(=O)N[C@@H](C)[C@@H](Cc2ccc(OCC[18F])cc2)c2cccc(C#N)c2)nc1` [[^18F]MK-9470, N-{(1S,2S)-2-(3-cyanophenyl)-3-[4-(2-[^18F]fluoroethoxy)phenyl]-1-methylpropyl}-2-methyl-2-[(5-methylpyridin-2-yl)oxy]propanamide], the “Time of maximum tracer uptake post injection” value (CB1R [12]; rat) is listed as 300 min, the Washout (CB1R [12]; rats, even after 600 min) is listed as “no washout was observed” and the Washout (CB1R [4]; human, even after 6 h) is listed as “no washout was observed”.
